From patent publication US20070208088A1, “PQS: A NEW HYDROTROPE FOR SOLUBILIZING LIPOPHILIC COMPOUNDS IN WATER” (ZYMES, LLC, priority 2006, published 2007)

Assay: Micelle formation and micelle particle size in aqueous solution
Format: physicochemical
Settings: for particle size of the micelles: micelles formed in aqueous solution
Description: In one example, the compounds of the invention form micelles when added to an aqueous solution. The particle sizes of these micelles can be determined using art recognized methods, such as light scattering techniques. In one embodiment, the particle size is between about 300 nm and about 1 nm, preferably between about 200 nm and about 1 nm, more preferably between about 100 nm and about 1 nm. Smaller particle sizes are generally preferred.
Smaller micelle size is generally preferred.

| micelle formation in aqueous solution | particle size of the micelles | Substance |
| --- | --- | --- |
| forms micelles | about 80 nm | polyoxyethanyl-ubiquinol-sebacate [PQS-1000] |
| forms micelles | about 120 nm | polyoxyethanyl-ubiquinol-sebacate [PQS-600] |
